The experiment deals with male monkey (a cynomolgus monkey). The experiment can be described thus: Intraocular pressure lowering activity after ocular instillation. In kind it is in vivo. To be noted: Primates, in Macaca fascicularis, topical, maximum rate during 24 hours after ocular instillation of 30 μL, conscious monkey; for inhibition in vivo at 30 µg/mL: administration concentration 30 μg/mL; for inhibition in vivo at 10 µg/mL: administration concentration 10 μg/mL. How it is done: As can be easily understood by a person skilled in the art, in an in vivo test, since regarding all test compounds, carboxylic acid which is an active body has poor corneal permeability, pharmacological action of the active body was evaluated by ocular instillation administration of a compound which had been converted into an ester such as an ethyl ester or an isopropyl ester, or an alcohol.
A test compound-containing solution (30 μL) which had been adjusted to each of various concentrations was ocular instillation-administered to the left or right eye of a male monkey (a cynomolgus monkey) under consciousness. An intraocular pressure after administration was measured with time from administration initiation to after 24 hours. Upon measurement of an intraocular pressure, a cynomolgus monkey was fixed on a monkey chair, and the monkey was anesthetized by ocular instillation-administering an ocular surface anesthetic (Benoxil eye drops 0.4% Santen Pharmaceutical Co., Ltd.). After mounting of a blepharostat (Handaya Co., Ltd.), an intraocular pressure of both eyes was measured (7 to 8 examples per group) using a pneumatic applanation flat tonometer (Model 30 Classic, REICHERT). A difference between an intraocular pressure value before the administration of a test substance and an intraocular pressure value after the administration of the test substance was calculated as an intraocular pressure lowering rate in accordance with the following equation, and the sustainability of intraocular eye lowering action was evaluated using a maximum intraocular pressure lowering rate during measurement.
The administered concentrations were determined based on the EP2 agonist activities measured by the above-mentioned method.

Drawing on patent US9890146B2, “Compound having selective EP2 agonist activity” (ONO PHARMACEUTICAL CO., LTD., priority 2014, dated 2018), this text covers inhibition in vivo for ten compounds.

For orientation: inhibition in vivo means the drop in the measured response relative to a control, in per cent.

`CC(C)OC(=O)c1csc([C@H]2CC[C@@H]3[C@@H](COc4ccc5c(c4)CCC5)[C@H](O)C[C@@H]3O2)n1` [3(4)] returned an inhibition in vivo at 30 µg/mL of 35%.

`OCc1csc([C@H]2CC[C@@H]3[C@@H](COc4ccc5c(c4)CCC5)[C@@H](O)C[C@@H]3O2)n1` [10(1), (2R,4aR,5S,6S,7aS)-5-[(2,3-dihydro-1H-inden-5-yloxy)methyl]-2-[4-(hydroxymethyl)-1,3-thiazol-2-yl]octahydrocyclopenta[b]pyran-6-ol] yielded an inhibition in vivo at 3 µg/mL (administration concentration 3 μg/mL) of 29%.

The compound `CCc1cc(OC[C@@H]2[C@H]3CC[C@H](c4nc(CO)cs4)O[C@H]3C[C@H]2O)ccc1C` [2(9), (2R,4aR,5S,6R,7aS)-5-[(3-ethyl-4-methylphenoxy)methyl]-2-[4-(hydroxymethyl)-1,3-thiazol-2-yl]octahydrocyclopenta[b]pyran-6-ol] gave an inhibition in vivo at 10 µg/mL of 52%. `OCc1csc([C@H]2CC[C@@H]3[C@@H](COc4ccc5[nH]ccc5c4)[C@H](O)C[C@@H]3O2)n1` [2(5), (2R,4aR,5S,6R,7aS)-2-[4-(hydroxymethyl)-1,3-thiazol-2-yl]-5-[(1H-indol-5-yloxy)methyl]octahydrocyclopenta[b]pyran-6-ol] returned an inhibition in vivo at 30 µg/mL of 48%. Regarding `OCc1csc([C@H]2CC[C@@H]3[C@@H](COc4ccc5c(c4F)CCC5)[C@H](O)C[C@@H]3O2)n1` [2(16), (2R,4aR,5S,6R,7aS)-5-{[(4-fluoro-2,3-dihydro-1H-inden-S-yl)oxy]methyl}-2-[4-(hydroxymethyl)-1,3-thiazol-2-yl]octahydrocyclopenta[b]pyran-6-ol], the inhibition in vivo at 30 µg/mL was determined as 51%. In turn, `Cc1ccc(OC[C@@H]2[C@H]3CC[C@H](c4nc(CO)cs4)O[C@H]3C[C@H]2O)cc1C` [2(12), (2R,4aR,5S,6R,7aS)-5-[(3,4-dimethylphenoxy)methyl]-2-[4-(hydroxymethyl)-1,3-thiazol-2-yl]octahydrocyclopenta[b]pyran-6-ol] registered an inhibition in vivo at 10 µg/mL of 43%.

For the compound `Cc1ccc(OC[C@@H]2[C@H]3CC[C@H](c4nc(CO)cs4)O[C@H]3C[C@@H]2O)cc1Cl` [10(21), (2R,4aR,5S,6S,7aS)-5-[(3-chloro-4-methylphenoxy)methyl]-2-[4-(hydroxymethyl)-1,3-thiazol-2-yl]octahydrocyclopenta[b]pyran-6-ol], testing at 1 µg/mL (administration concentration 1 μg/mL) gave an inhibition in vivo of 44%. In turn, `OCc1csc([C@H]2CC[C@@H]3[C@@H](COc4ccc5c(c4)CCCCC5)[C@@H](O)C[C@@H]3O2)n1` [10(16), (2R,4aR,5S,6S,7aS)-2-[4-(hydroxymethyl)-1,3-thiazol-2-yl]-5-[(6,7,8,9-tetrahydro-5H-benzo[7]annulen-2-yloxy)methyl]octahydrocyclopenta[b]pyran-6-ol] gave an inhibition in vivo at 10 µg/mL of 45%.

Consider `OCc1csc([C@H]2CC[C@@H]3[C@@H](COc4ccc5c(c4)CCC5)[C@H](O)C[C@@H]3O2)n1` [2(4), (2R,4aR,5S,6R,7aS)-5-[(2,3-dihydro-1H-inden-5-yloxy)methyl]-2-[4-(hydroxymethyl)-1,3-thiazol-2-yl]octahydrocyclopenta[b]pyran-6-ol], for which, for the setting “administration concentration 100 μg/mL”, the inhibition in vivo at 100 µg/mL was 40%. The compound `OCc1csc([C@H]2CC[C@@H]3[C@@H](COc4ccc5c(c4)CC5)[C@H](O)C[C@@H]3O2)n1` [2(7), (2R,4aR,5S,6R,7aS)-5-[(bicyclo[4.2.0]octa-1,3,5-trien-3-yloxy)methyl]-2-[4-(hydroxymethyl)-1,3-thiazol-2-yl]octahydrocyclopenta[b]pyran-6-ol] returned an inhibition in vivo at 30 µg/mL of 38%.
